# Assay results reported in ChEMBL document CHEMBL1909046, “DrugMatrix in vitro pharmacology data”.
# Legend:
# [1] = biological target: Beta-3 adrenergic receptor (Homo sapiens, UniProt P13945); assay: DRUGMATRIX: Adrenergic beta3 radioligand binding (ligand: [125I] Cyanopindolol); format: cell membranes, HEK293, Membrane; conditions: hek293; Not Active = under 50% inhibition at 10 µM
# [2] = biological target: T1, 5-hydroxytryptamine receptor 2C (Homo sapiens, UniProt P28335); assay: DRUGMATRIX: Serotonin (5-Hydroxytryptamine) 5-HT2C radioligand binding (ligand: [3H] Mesulergine); format: cell membranes, CHO-K1, Membrane; conditions: Not Active = under 50% inhibition at 10 µM
# T1 sequence (P28335 whole entry): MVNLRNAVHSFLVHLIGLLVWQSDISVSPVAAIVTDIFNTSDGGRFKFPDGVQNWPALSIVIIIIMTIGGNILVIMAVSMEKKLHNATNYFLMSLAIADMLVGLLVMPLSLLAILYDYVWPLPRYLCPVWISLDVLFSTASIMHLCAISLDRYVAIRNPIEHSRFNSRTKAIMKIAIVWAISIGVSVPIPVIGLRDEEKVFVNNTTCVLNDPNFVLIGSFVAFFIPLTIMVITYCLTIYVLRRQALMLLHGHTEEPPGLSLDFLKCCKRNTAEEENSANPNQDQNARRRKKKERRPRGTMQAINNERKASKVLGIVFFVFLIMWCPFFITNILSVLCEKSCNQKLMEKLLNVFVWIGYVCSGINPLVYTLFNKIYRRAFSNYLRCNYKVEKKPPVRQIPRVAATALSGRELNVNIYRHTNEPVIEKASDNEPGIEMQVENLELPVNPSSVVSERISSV
# [3] = DRUGMATRIX: Serotonin (5-Hydroxytryptamine) 5-HT3 radioligand binding (ligand: [3H] GR-65630); format: cell membranes, Membrane; conditions: hek293; Not Active = under 50% inhibition at 10 µM
# [4] = DRUGMATRIX: GABAA, Muscimol, Central radioligand binding (ligand: [3H] Muscimol); format: cell membranes, Rattus norvegicus, Wistar, Brain, Membrane; conditions: Not Active = under 50% inhibition at 10 µM
# [5] = biological target: T2, Muscarinic acetylcholine receptor M5 (Homo sapiens, UniProt P08912); format: cell membranes, CHO-K1, Membrane; also: in other assays of this panel Not Active means under 50% inhibition at 10 µM
# T2 sequence (P08912 whole entry): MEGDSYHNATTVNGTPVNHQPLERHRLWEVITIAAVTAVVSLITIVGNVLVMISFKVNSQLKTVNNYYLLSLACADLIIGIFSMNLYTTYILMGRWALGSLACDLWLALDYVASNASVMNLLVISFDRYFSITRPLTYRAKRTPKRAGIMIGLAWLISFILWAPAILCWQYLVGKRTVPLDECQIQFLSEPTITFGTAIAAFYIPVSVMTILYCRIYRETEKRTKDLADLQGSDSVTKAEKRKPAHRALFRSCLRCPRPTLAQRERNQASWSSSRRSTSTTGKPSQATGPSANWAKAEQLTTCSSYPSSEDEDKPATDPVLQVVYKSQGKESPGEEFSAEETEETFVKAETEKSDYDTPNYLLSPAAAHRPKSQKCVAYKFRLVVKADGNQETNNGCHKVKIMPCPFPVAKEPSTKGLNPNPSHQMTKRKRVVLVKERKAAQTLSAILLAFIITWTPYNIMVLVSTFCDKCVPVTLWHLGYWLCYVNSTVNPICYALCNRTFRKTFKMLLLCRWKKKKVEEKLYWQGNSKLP
# [6] = biological target: Receptor tyrosine-protein kinase erbB-2 (Homo sapiens, UniProt P04626); assay: biochemical; format: cell-based, Insect cells; conditions: insect cells;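 also: inhibition of HER2 kinase enzyme activity, measured with Poly(Glu:Tyr) as the phosphorylation substrate; in other assays of this panel Not Active means under 50% inhibition at 10 µM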
# Chain of Beta-3 adrenergic receptor (P13945 whole entry): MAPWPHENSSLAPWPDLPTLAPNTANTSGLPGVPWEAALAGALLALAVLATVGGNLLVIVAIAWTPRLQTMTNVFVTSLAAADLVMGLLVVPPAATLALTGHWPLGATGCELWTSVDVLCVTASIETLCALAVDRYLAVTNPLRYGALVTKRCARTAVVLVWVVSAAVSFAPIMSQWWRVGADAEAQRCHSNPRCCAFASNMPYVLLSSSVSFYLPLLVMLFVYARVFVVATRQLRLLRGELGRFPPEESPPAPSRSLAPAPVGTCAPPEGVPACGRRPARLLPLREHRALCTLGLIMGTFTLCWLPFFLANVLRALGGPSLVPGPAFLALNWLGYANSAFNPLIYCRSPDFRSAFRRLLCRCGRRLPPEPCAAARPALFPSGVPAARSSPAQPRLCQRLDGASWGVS
Molecule,IC50 [1],IC50 ([2]; cho-k1),IC50 [3],Ki [3],IC50 [4],Ki [4],IC50 ([5]; cho-k1),IC50 [6],Ki [1],Ki ([2]; cho-k1),Ki ([5]; cho-k1),Ki [6],IC50 ([2]; read-out: IC50),Ki ([2]; read-out: Ki),IC50 ([5]; read-out: IC50),Ki ([5]; read-out: Ki)
CC(C(=O)O)c1cccc(Oc2ccccc2)c1 (stereo not drawn) [FENOPROFEN],Not Active,Not Active,Not Active,Not Active,Not Active,Not Active,Not Active,Not Active,,,,,,,,
NNc1nncc2ccccc12 [HYDRALAZINE],Not Active,Not Active,Not Active,Not Active,Not Active,Not Active,Not Active,Not Active,,,,,,,,
O=C1O[C@H]([C@@H](O)CO)C(O)=C1O [ASCORBIC ACID],Not Active,Not Active,Not Active,Not Active,Not Active,Not Active,Not Active,Not Active,,,,,,,,
NC(=O)C[S+]([O-])C(c1ccccc1)c1ccccc1 (stereo not drawn) [MODAFINIL],Not Active,Not Active,Not Active,Not Active,Not Active,Not Active,Not Active,Not Active,,,,,,,,
CCN(CC)CCOCCC1=CCC2CC1C2(C)C (stereo not drawn) [MYRTECAINE],Not Active,Not Active,Not Active,Not Active,Not Active,Not Active,Not Active,Not Active,,,,,,,,
GRAMICIDIN,Not Active,Not Active,Not Active,Not Active,Not Active,Not Active,Not Active,Not Active,Not Active,Not Active,Not Active,Not Active,,,,
COc1cc([C@@H]2c3cc4c(cc3[C@@H](O[C@@H]3O[C@@H]5CO[C@@H](C)O[C@H]5[C@H](O)[C@H]3O)[C@H]3COC(=O)[C@H]23)OCO4)cc(OC)c1O [ETOPOSIDE],Not Active,Not Active,Not Active,Not Active,Not Active,Not Active,Not Active,Not Active,,,,,,,,
CCC1(C)CC(=O)NC1=O (stereo not drawn) [ETHOSUXIMIDE],Not Active,Not Active,Not Active,Not Active,Not Active,Not Active,Not Active,Not Active,,,,,,,,
Cc1nnc2n1-c1ccc(Cl)cc1C(c1ccccc1)=NC2 [ALPRAZOLAM],Not Active,Not Active,Not Active,Not Active,Not Active,Not Active,Not Active,Not Active,,,,,,,,
CC(C)=CCC/C(C)=C/CO [GERANIOL],Not Active,Not Active,Not Active,Not Active,Not Active,Not Active,Not Active,Not Active,,,,,,,,
COc1ccc(C(=O)N2CCCC2=O)cc1,Not Active,Not Active,Not Active,Not Active,Not Active,Not Active,Not Active,Not Active,,,,,,,,
GENTAMICIN,Not Active,Not Active,Not Active,Not Active,Not Active,Not Active,Not Active,Not Active,Not Active,Not Active,Not Active,Not Active,,,,
CC(C)NNC(=O)c1ccncc1 [IPRONIAZID],Not Active,Not Active,Not Active,Not Active,Not Active,Not Active,Not Active,Not Active,,,,,,,,
O=c1cc(N2CCOCC2)oc2c(-c3ccccc3)cccc12 [LY-294002],Not Active,,Not Active,Not Active,Not Active,Not Active,Not Active,Not Active,,,,,1000 nM,525 nM,,
NCCCC(O)(P(=O)(O)O)P(=O)(O)O [ALENDRONIC ACID],Not Active,Not Active,Not Active,Not Active,Not Active,Not Active,Not Active,Not Active,,,,,,,,
Nc1ccc2c3c(cccc13)C(=O)NC2=O,Not Active,Not Active,Not Active,Not Active,Not Active,Not Active,Not Active,Not Active,,,,,,,,
CC(C)(C)NC(=O)[C@H]1CC[C@H]2[C@@H]3CC[C@H]4NC(=O)C=C[C@]4(C)[C@H]3CC[C@]12C [FINASTERIDE],Not Active,Not Active,Not Active,Not Active,Not Active,Not Active,Not Active,Not Active,,,,,,,,
CC[C@H](C)[C@H]1O[C@]2(C=C[C@@H]1C)C[C@@H]1C[C@@H](C/C=C(\C)[C@@H](O[C@H]3C[C@H](OC)[C@@H](O[C@H]4C[C@H](OC)[C@@H](O)[C@H](C)O4)[C@H](C)O3)[C@@H](C)/C=C/C=C3\CO[C@@H]4[C@H](O)C(C)=C[C@@H](C(=O)O1)[C@]34O)O2.CO[C@H]1C[C@H](O[C@H]2[C@H](C)O[C@@H](O[C@@H]3/C(C)=C/C[C@@H]4C[C@@H](C[C@]5(C=C[C@H](C)[C@@H](C(C)C)O5)O4)OC(=O)[C@@H]4C=C(C)[C@@H](O)[C@H]5OC/C(=C\C=C\[C@@H]3C)[C@]54O)C[C@@H]2OC)O[C@@H](C)[C@@H]1O [ABAMECTIN],Not Active,Not Active,Not Active,Not Active,Not Active,Not Active,Not Active,Not Active,,,,,,,,
Cn1c(=O)c2[nH]cnc2n(C)c1=O.Cn1c(=O)c2[nH]cnc2n(C)c1=O.NCCN [AMINOPHYLLINE],Not Active,Not Active,Not Active,Not Active,Not Active,Not Active,Not Active,Not Active,,,,,,,,
C#C[C@]1(OC(C)=O)CC[C@H]2[C@@H]3CCC4=C[C@@H](OC(C)=O)CC[C@@H]4[C@H]3CC[C@@]21C [ETHYNODIOL DIACETATE],Not Active,Not Active,Not Active,Not Active,Not Active,Not Active,Not Active,Not Active,,,,,,,,
CN/C(=N\CCSCc1nc[nH]c1C)NC#N [CIMETIDINE],Not Active,Not Active,Not Active,Not Active,Not Active,Not Active,Not Active,Not Active,,,,,,,,
COc1ccc2c3c1O[C@H]1C[C@@H](O)C=C[C@@]31CCN(C)C2 [GALANTAMINE],Not Active,Not Active,Not Active,Not Active,Not Active,Not Active,Not Active,Not Active,,,,,,,,
OC(CCCN1CCCCC1)(c1ccccc1)c1ccccc1 [DIPHENIDOL],Not Active,Not Active,Not Active,Not Active,Not Active,Not Active,,Not Active,,,,,,,1190 nM,855 nM
CCC(=O)O[C@]1(C(=O)CCl)[C@@H](C)C[C@H]2[C@@H]3CCC4=CC(=O)C=C[C@]4(C)[C@@]3(F)[C@@H](O)C[C@@]21C [CLOBETASOL PROPIONATE],Not Active,Not Active,Not Active,Not Active,Not Active,Not Active,Not Active,Not Active,,,,,,,,
CCCN(CCC)S(=O)(=O)c1ccc(C(=O)O)cc1 [PROBENECID],Not Active,Not Active,Not Active,Not Active,Not Active,Not Active,Not Active,Not Active,,,,,,,,
O=C(O)CCNC(=O)c1ccccc1 [BETAMIPRON],Not Active,Not Active,Not Active,Not Active,Not Active,Not Active,Not Active,Not Active,,,,,,,,
